Values joined by “and” are separate entries in the source; they are usually repeats but may differ in a detail not shown here. Identical values can stand only once.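 Briefly, cells in 96-well plates were exposed to five compound concentrations for 48 h, and endpoints were estimated by linear interpolation. Abbreviation: GI50, concentration required for 50% inhibition of growth. TGI: concentration producing complete growth inhibition.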 A value given as a limit tells only on which side of the number the result lay.

Among the test systems are EKVX NSCLC; MOLT-4 leukemia; CAKI-1 renal; OVCAR-4 ovarian; SNB-19 CNS; RPMI-8226 leukemia; COLO 205 colon; MDA-MB-231 breast; T-47D breast; MDA-MB-435.
Assay in all cases: NCI anticancer screen, dose series, 48 h

On to `Clc1ccc(-n2nnc(C3=NCCCN3)c2-c2ccccc2)cc1`, for which the TGI with EKVX NSCLC, with MOLT-4 leukemia, in the test with CAKI-1 renal, in the test with OVCAR-4 ovarian, in the test on SNB-19 CNS and with RPMI-8226 leukemia was more than 100 µM each time. Also, the TGI in the test with COLO 205 colon was more than 100 µM.
As for `CC(C)=CC(=O)Oc1ccc([N+](=O)[O-])cc1`, the TGI is more than 100 µM with EKVX NSCLC; more than 100 µM in the test with MOLT-4 leukemia; 53.8 µM in the test on CAKI-1 renal; more than 100 µM with OVCAR-4 ovarian; more than 100 µM in the test on SNB-19 CNS; more than 100 µM in the test with RPMI-8226 leukemia. Also, the TGI in the test with COLO 205 colon was more than 100 µM.
Consider `COc1ccc2nc(-c3ccccc3)cc(Nc3ccc(C(C)=O)cc3)c2c1`, for which the GI50 was 5.98 µM in the test on EKVX NSCLC; 0.0369 µM with MDA-MB-231 breast; 15.7 µM in the test with T-47D breast; 1.98 µM with MOLT-4 leukemia; 12.1 µM in the test on OVCAR-4 ovarian; 5.74 µM in the test on SNB-19 CNS. Moreover, the GI50 is 1.72 µM in the test with RPMI-8226 leukemia and 16.4 µM in the test with COLO 205 colon. The TGI is 20.5 µM in the test on EKVX NSCLC; 2.13 µM in the test with MDA-MB-231 breast; more than 100 µM with T-47D breast; 4.93 µM in the test with MOLT-4 leukemia; more than 100 µM with OVCAR-4 ovarian; 26.6 µM with SNB-19 CNS. Also, the TGI was 4.31 µM with RPMI-8226 leukemia and more than 100 µM in the test with COLO 205 colon.
Turning to `CC(=O)OCC1OC(OC2CC3C(C)(C)C(OC(C)=O)CC[C@]3(C)C3CCC45CC4(CC[C@H]5C(C)CC(O)[C@@H](O)C(C)(C)O)[C@]23C)C(O)C(O)C1O` (stereo partly drawn), the GI50 in the test with EKVX NSCLC was 15.8 µM; in the test with MOLT-4 leukemia it was 0.0045 µM; in the test with CAKI-1 renal, 6.07 µM; with OVCAR-4 ovarian, 13.4 µM; in the test on SNB-19 CNS, 4.35 µM; in the test on RPMI-8226 leukemia, 2.09 µM. Moreover, the GI50 with COLO 205 colon was 1.93 µM. The TGI in the test with EKVX NSCLC was 13.1 µM and 29.2 µM; in the test on MOLT-4 leukemia, 45 µM and 10.5 µM; with CAKI-1 renal, 13.4 µM and 17.2 µM; in the test with OVCAR-4 ovarian, 12.7 µM and 26.1 µM; in the test with SNB-19 CNS, 13.2 µM and 14.8 µM; in the test with RPMI-8226 leukemia, 6.74 µM and 11.6 µM. The TGI in the test on COLO 205 colon was 14 µM and 3.95 µM.
Turning to `Cc1cc(O)c(C(=O)CC2(O)C(=O)Nc3c(Cl)cc(Cl)cc32)c(=O)o1` (stereo not drawn), the TGI in the test with EKVX NSCLC, in the test on MOLT-4 leukemia, with CAKI-1 renal, in the test on OVCAR-4 ovarian, in the test on SNB-19 CNS and in the test with RPMI-8226 leukemia was more than 100 µM each time. The compound also displayed a TGI with COLO 205 colon of more than 100 µM.
In the case of `Cn1nc(-c2ccccc2)c(N=[N+]=[N-])cc1=O`, the TGI in the test with EKVX NSCLC, with MOLT-4 leukemia, with CAKI-1 renal, in the test on OVCAR-4 ovarian, with SNB-19 CNS and in the test on RPMI-8226 leukemia was more than 100 µM each time. In the test with COLO 205 colon, the TGI was more than 100 µM.
As for `O=C(O)c1c2c(c(C(=O)O)c3ccccc13)-c1ccccc1-2`, the TGI with EKVX NSCLC, with MOLT-4 leukemia, with SNB-19 CNS, in the test with RPMI-8226 leukemia and in the test on COLO 205 colon was more than 100 µM in each case.
Turning to `N/N=C(\CC1OC(=O)c2ccccc21)c1ccco1` (stereo not drawn), the TGI in the test with EKVX NSCLC, in the test on MOLT-4 leukemia, in the test with CAKI-1 renal, in the test on OVCAR-4 ovarian, in the test on SNB-19 CNS and in the test on COLO 205 colon was more than 100 µM throughout.
As to `COc1ccc(C(=O)C(c2ccc(OC)cc2)C2(O)C(=O)Nc3c(C)cc(Cl)cc32)cc1` (stereo not drawn), the TGI in the test on EKVX NSCLC is more than 100 µM; with MOLT-4 leukemia it was 54.5 µM; in the test with OVCAR-4 ovarian, more than 100 µM; in the test on SNB-19 CNS, more than 100 µM; in the test on RPMI-8226 leukemia, 80.4 µM; with COLO 205 colon, more than 100 µM.
As for `COc1ccc(/C=C\c2cc(OC)c(OC)c(OC)c2)cc1OC(=O)C(N)CCC(=O)O` (stereo not drawn), the TGI was more than 100 µM in the test with EKVX NSCLC; more than 100 µM in the test on T-47D breast; 0.000799 µM and 0.000118 µM in the test with MDA-MB-435; more than 100 µM with OVCAR-4 ovarian; more than 100 µM with SNB-19 CNS. For the same compound, the GI50 in the test with MDA-MB-231 breast is 0.00211 µM and 0.00795 µM; with T-47D breast, more than 100 µM; with MDA-MB-435, 0.169 nM and 0.049 nM; in the test with MOLT-4 leukemia, 0.00244 µM; in the test with SNB-19 CNS, 0.000828 µM and 0.000281 µM and < 0.0001 µM; in the test on RPMI-8226 leukemia, 0.000691 µM and < 0.0316 µM.
Take `COc1ccc(C2S/C(=C\c3cc(OC)c(OC)c(OC)c3)C(=O)N2NC(=O)Cc2ccccc2)cc1` (stereo not drawn): the TGI in the test with MOLT-4 leukemia, in the test with CAKI-1 renal, in the test on OVCAR-4 ovarian, with RPMI-8226 leukemia and in the test on COLO 205 colon was more than 100 µM in each case.
`Cc1cccc(C)c1NC(=O)CCCC(=O)CC(=O)/C=C/c1ccccc1`: the TGI in the test on MOLT-4 leukemia, in the test on CAKI-1 renal, with OVCAR-4 ovarian, in the test on SNB-19 CNS, with RPMI-8226 leukemia and with COLO 205 colon was more than 100 µM each time.
For `Cc1nc2c(=O)[nH]c(=O)n(C)c2[nH]c1=O`, the TGI in the test with EKVX NSCLC, in the test on MOLT-4 leukemia, in the test on CAKI-1 renal, with OVCAR-4 ovarian, in the test on SNB-19 CNS and in the test with RPMI-8226 leukemia was more than 100 µM throughout. The same compound displayed a TGI in the test on COLO 205 colon of more than 100 µM.
Turning to `c1nc2cscc2c2cscc12`, the TGI in the test with MOLT-4 leukemia, with CAKI-1 renal, with OVCAR-4 ovarian, with SNB-19 CNS and in the test with RPMI-8226 leukemia was more than 100 µM throughout.
`COC(=O)NC/C=C\c1nc(CC/C=C\C(=O)OC2CC3CC(=O)O[C@H](/C=C/CC(C)C)C[C@H]4CCC(C)C(C[C@H](OC)CC(C2)O3)O4)co1` (stereo partly drawn): the GI50 was less than 0.01 µM in the test on EKVX NSCLC; 11.3 µM in the test on MDA-MB-231 breast; 39.1 µM in the test with T-47D breast; less than 0.01 µM with CAKI-1 renal; 23.4 µM in the test on OVCAR-4 ovarian; 23 µM in the test on SNB-19 CNS. Besides, the GI50 with COLO 205 colon was 1.1 µM. The TGI in the test with EKVX NSCLC was 4.8 µM; in the test on MDA-MB-231 breast it was more than 100 µM; with T-47D breast it was more than 100 µM; in the test with CAKI-1 renal it was 41.1 µM; in the test on OVCAR-4 ovarian, more than 100 µM; in the test with SNB-19 CNS it was more than 100 µM. The compound also returned a TGI with COLO 205 colon of more than 100 µM.

Source of the values: PubChem BioAssay (NCI).
